Molecular target: mGluR4 (Homo sapiens, UniProt Q14833)
Test: mGlu4 PAM potentiation assay, CHO cells transfected with human mGluR4, Ca2+-sensitive dye fluorescence
Assay type: cell-based
Experimental: The disclosed compounds and compositions can be evaluated for their ability to act as a potentiator of metabotropic glutamate receptor activity, in particular mGluR4 activity, by any suitable known methodology known in the art. For example, Chinese Hamster Ovary (CHO) cells transfected with human mGluR4 or HEK cells co-transfected with rat mGluR4 and the G-protein regulated Inwardly Rectifying Potassium channel (GIRK) were plated in clear bottom, assay plates for assay in a Hamamatsu FDSS Fluorometric Plate Reader. The cells were loaded with either a Ca2+-sensitive fluorescent dye or the thallium responsive dye and the plates were washed and placed into a suitable kinetic plate reader. For human mGluR4 assays, a fluorescence baseline was established for 3-5 seconds, the disclosed compounds were then added to the cells, and the response in cells was measured. Approximately two and a half minutes later, a concentration of mGluR4 orthosteric agonist (e.g. glutamate, L-AP4, or L-SOP) eliciting approximately 20% (EC20) of the maximal agonist response was added to the cells, and the response was measured. Two minutes later, a concentration of mGluR4 agonist (e.g. glutamate, L-AP4, or L-SOP) eliciting 80% (EC80) of the maximal agonist response was added to the cells, and the response was measured. For rat mGluR4/GIRK experiments, a baseline was established for approximately five seconds, disclosed compounds were added, and either an EC20 or EC80 concentration of agonist was added approximately two and one half minutes later. Potentiation or antagonism of the agonist response of mGluR4 by the disclosed compounds was observed as an increase or decrease in response to the EC20 concentration of agonist in the presence of compound compared to the response to agonist in the absence of compound. Similarly, potentiation or antagonism of the agonist response of mGluR4 by the disclosed Compounds was observed as an increase or decrease in response to the EC80 concentration of agonist in the presence of compound compared to the response to agonist in the absence of compound.
The above described assay operated in two modes. In the first mode, a range of concentrations of the disclosed compounds are added to cells, followed by a single fixed concentration of agonist. If the compound acts as a potentiatior, an EC50 value for potentiation and a maximum extent of potentiation by the compound at this concentration of agonist is determined by non-linear curve fitting. If the compound acts as an antagonist, an IC50 value is determined by non-linear curve fitting. In the second mode, several fixed concentrations of the disclosed compounds are added to various wells on a plate, followed by a range in concentrations of agonist for each concentration of disclosed compound. The EC50 values for the agonist at each concentration of compound are determined by non-linear curve fitting. A decrease in the EC50 value of the agonist with increasing concentrations of the sample compound (a leftward shift of the agonist concentration-response curve) is an indication of the degree of mGluR4 potentiation at a given concentration of the sample compound. A decrease in the maximal response of the agonist with increasing concentrations of the sample compounds, with or without a rightward shift in agonist potency, is an indication of the degree of antagonism at mGluR4. The second mode also indicates whether the sample compounds also affect the maximum response to mGluR4 to agonists.

Sequence of mGluR4 (Q14833 33-912 limits assumed): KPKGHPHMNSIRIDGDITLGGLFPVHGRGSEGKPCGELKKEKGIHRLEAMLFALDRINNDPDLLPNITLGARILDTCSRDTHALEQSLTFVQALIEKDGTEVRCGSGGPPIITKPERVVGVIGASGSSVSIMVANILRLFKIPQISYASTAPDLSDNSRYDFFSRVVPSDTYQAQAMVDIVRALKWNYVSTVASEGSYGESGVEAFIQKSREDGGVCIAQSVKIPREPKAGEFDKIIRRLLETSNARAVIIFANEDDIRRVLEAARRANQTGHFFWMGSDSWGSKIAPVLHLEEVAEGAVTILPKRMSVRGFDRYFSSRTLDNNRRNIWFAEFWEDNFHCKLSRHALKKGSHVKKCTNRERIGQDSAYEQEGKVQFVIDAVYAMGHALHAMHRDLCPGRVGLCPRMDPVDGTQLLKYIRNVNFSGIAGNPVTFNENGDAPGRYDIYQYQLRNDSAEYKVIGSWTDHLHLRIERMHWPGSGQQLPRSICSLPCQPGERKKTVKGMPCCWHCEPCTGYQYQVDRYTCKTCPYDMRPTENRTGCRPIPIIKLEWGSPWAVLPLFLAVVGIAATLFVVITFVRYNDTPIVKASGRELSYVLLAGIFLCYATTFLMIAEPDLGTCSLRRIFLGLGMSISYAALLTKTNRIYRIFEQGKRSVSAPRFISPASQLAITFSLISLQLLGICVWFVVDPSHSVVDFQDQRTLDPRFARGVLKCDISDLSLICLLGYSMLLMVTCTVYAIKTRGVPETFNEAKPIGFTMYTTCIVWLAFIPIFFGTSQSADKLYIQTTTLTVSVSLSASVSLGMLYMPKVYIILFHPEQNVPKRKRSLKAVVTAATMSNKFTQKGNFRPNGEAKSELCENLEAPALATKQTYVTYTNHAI

Row | EC50 | Structure (SMILES)
1 | 0.978 µM | O=C(Nc1cc(F)c2c(OCC3CCOCC3)nccc2c1)c1ncccc1C(F)(F)F [Compound 98]
2 | 0.0341 µM | O=C(Nc1ccc2c(OCC3CCOCC3)nccc2c1)c1ccc(F)cn1 [Compound 105]
3 | 0.8 µM | O=C(Nc1ccc2c(OCC3CCOC3)nccc2c1)c1nc(F)ccc1F (centres unmarked) [Compound 74]
4 | 0.0377 µM | O=C(Nc1cc(F)c2c(OCC3CCOCC3)nccc2c1)c1ccccn1 [Compound 94]
5 | 0.615 µM | O=C(Nc1ccc2c(OCC3CCOC3)nccc2c1)c1ccc(Cl)cn1 (centres unmarked) [Compound 85]
6 | 0.216 µM | O=C(Nc1ccc2c(OCC3COCCO3)nccc2c1)c1cccc(F)n1 (centres unmarked) [Compound 118]
7 | 0.154 µM | O=C(Nc1cc(F)c2c(OCC3CCOC3)nccc2c1)c1ncc(F)cc1F (centres unmarked) [Compound 83]
8 | 0.0393 µM | O=C(Nc1cc(F)c2c(OCC3CCOC3)nccc2c1)c1ccccn1 (centres unmarked) [Compound 78]
9 | 0.0766 µM | CC1(C)CC(Oc2nccc3cc(NC(=O)c4ncc(F)cc4F)cc(F)c23)CCO1 (centres unmarked) [Compound 103]
10 | 0.106 µM | Nc1cccnc1C(=O)Nc1cc(F)c2c(OCC3CCOCC3)nccc2c1 [Compound 95]
11 | 0.707 µM | Cc1ccoc1C(=O)Nc1ccc2c(OCC3CCOC3)nccc2c1 (centres unmarked) [Compound 110]
12 | 0.127 µM | CC1(C)CC(Oc2nccc3cc(NC(=O)c4ncccc4N)cc(F)c23)CCO1 (centres unmarked) [Compound 106]
13 | 0.992 µM | O=C(Nc1ccc2c(OCC3CCOC3)nccc2c1)c1ncc(F)cc1F (centres unmarked) [Compound 73]
14 | 0.0708 µM | CC1(C)CC(Oc2nccc3cc(NC(=O)c4ccccn4)cc(F)c23)CCO1 (centres unmarked) [Compound 100]
15 | 0.0816 µM | O=C(Nc1cc(F)c2c(OCC3CCOC3)nccc2c1)c1ccc(F)cn1 (centres unmarked) [Compound 81]
16 | 0.0915 µM | O=C(Nc1ccc2c(OCC3CCOCC3)nccc2c1)c1cccc(F)n1 [Compound 109]
17 | 0.1 µM | O=C(Nc1ccc2c(OCc3ccncc3)nccc2c1)c1ccc(F)cn1 [Compound 115]
18 | 0.608 µM | O=C(Nc1ccc2c(Oc3ccncc3)nccc2c1)c1ccc(F)cn1 [Compound 113]

Row | EC50 | Structure (SMILES)
19 | 0.0521 µM | O=C(Nc1cc(F)c2c(OCC3CCOCC3)nccc2c1)c1ccc(F)cn1 [Compound 97]
20 | 0.0905 µM | Nc1cccnc1C(=O)Nc1ccc2c(OCC3COCCO3)ncc(F)c2c1 (centres unmarked) [Compound 68]
21 | 0.172 µM | O=C(Nc1cc(F)c2c(OCC3CCOC3)nccc2c1)c1nc(F)ccc1F (centres unmarked) [Compound 84]
22 | 0.334 µM | Nc1nccnc1C(=O)Nc1ccc2c(OCC3COCCO3)nccc2c1 (centres unmarked) [Compound 117]
23 | 0.333 µM | O=C(Nc1cnc2c(OCC3CCOCC3)nccc2c1)c1ccccn1 [Compound 120]
24 | 0.0829 µM | O=C(Nc1ccc2c(OCC3CCOC3)ncc(F)c2c1)c1ccccn1 (centres unmarked) [Compound 60]
25 | 0.312 µM | O=C(Nc1cc(F)c2c(OCC3CCOC3)nccc2c1)c1ncccc1F (centres unmarked) [Compound 80]
26 | 0.619 µM | O=C(Nc1ccc2c(OCC3CCOC3)nccc2c1)c1cccc(Cl)n1 (centres unmarked) [Compound 86]
27 | 0.142 µM | CC1(C)CC(Oc2nccc3cc(NC(=O)c4ccc(F)cn4)cc(F)c23)CCO1 (centres unmarked) [Compound 102]
28 | 0.616 µM | CC1(C)CC(Nc2nccc3cc(NC(=O)c4ncccc4N)ccc23)CCO1 (centres unmarked) [Compound 76]
29 | 0.454 µM | O=C(Nc1cnc2c(OCC3CCOCC3)nccc2c1)c1ccc(F)cn1 [Compound 122]
30 | 0.152 µM | O=C(Nc1cc(F)c2c(OCC3COCCO3)nccc2c1)c1ncccc1F (centres unmarked) [Compound 92]
31 | 0.144 µM | O=C(Nc1ccc2c(OCC3CCOCC3)ncc(F)c2c1)c1ccccn1 [Compound 65]
32 | 0.12 µM | CC1(C)CC(Oc2nccc3cc(NC(=O)c4ncccc4F)cc(F)c23)CCO1 (centres unmarked) [Compound 101]
33 | 0.0887 µM | Nc1cccnc1C(=O)Nc1ccc2c(OCC3CCOC3)ncc(F)c2c1 (centres unmarked) [Compound 63]
34 | 0.922 µM | CC1(C)COCCC1Nc1nccc2cc(NC(=O)c3ncccc3N)ccc12 (centres unmarked) [Compound 77]
35 | 0.0831 µM | Nc1nccnc1C(=O)Nc1ccc2c(OCC3CCOC3)nccc2c1 (centres unmarked) [Compound 99]
36 | 0.226 µM | O=C(Nc1ccc2c(OCC3CCOC3)nccc2c1)c1ccncn1 (centres unmarked) [Compound 107]

The remaining lines, values behind:

Row | Structure (SMILES) | EC50
37 | CCOCCOc1nccc2cc(NC(=O)c3ncccc3N)ccc12 [Compound 4] | 0.354 µM
38 | CC1CC(Oc2nccc3cc(NC(=O)c4ncccc4O)ccc23)CCO1 (centres unmarked) [Compound 45] | 0.447 µM
39 | CC1(COc2nccc3cc(NC(=O)c4ncccc4O)ccc23)CCOCC1 [Compound 33] | 0.269 µM
40 | O=C(Nc1ccc2c(OCC3CCOC3)nccc2c1)c1nccs1 (centres unmarked) [Compound 56] | 0.21 µM
41 | CO[C@@H](C)COc1nccc2cc(NC(=O)c3ncccc3N)ccc12 [Compound 52] | 0.288 µM
42 | CC1CC(Oc2nccc3cc(NC(=O)c4ccccn4)ccc23)CCO1 (centres unmarked) [Compound 43] | 0.908 µM
43 | CC1COCC1COc1nccc2cc(NC(=O)c3ccccn3)ccc12 (centres unmarked) [Compound 46] | 0.339 µM
44 | O=C(Nc1ccc2c(OC3CCOCC3)nccc2c1)c1ccccn1 [Compound 12] | 0.411 µM
45 | CC1(C)CC(COc2nccc3cc(NC(=O)c4ccccn4)ccc23)CO1 (centres unmarked) [Compound 48] | 0.452 µM
46 | O=C(Nc1ccc2c(OCC3CCOC3)nccc2c1)c1ccccn1 (centres unmarked) [Compound 15] | 0.0595 µM
47 | O=C(Nc1ccc2c(OCC3CCOC3)nccc2c1)c1ncc[nH]1 (centres unmarked) [Compound 58] | 0.217 µM
48 | CO[C@@H](C)COc1nccc2cc(NC(=O)c3ncccc3O)ccc12 [Compound 53] | 0.244 µM
49 | Nc1cccnc1C(=O)Nc1ccc2c(OCC3CCCCO3)nccc2c1 (centres unmarked) [Compound 9] | 0.242 µM
50 | O=C(Nc1ccc2c(OCC3CCOC3)nccc2c1)c1ncccc1F (centres unmarked) [Compound 18] | 0.262 µM
51 | CC1CC(Oc2nccc3cc(NC(=O)c4ncccc4N)ccc23)CCO1 (centres unmarked) [Compound 44] | 0.804 µM
52 | CC1(C)CC(Oc2nccc3cc(NC(=O)c4ncccc4O)ccc23)CCO1 (centres unmarked) [Compound 25] | 0.147 µM
53 | CO[C@H](C)COc1nccc2cc(NC(=O)c3ncccc3N)ccc12 [Compound 7] | 0.152 µM
54 | CC(C)(C)OCCOc1nccc2cc(NC(=O)c3ccccn3)ccc12 [Compound 28] | 0.419 µM
55 | CO[C@@H](C)COc1nccc2cc(NC(=O)c3ccccn3)ccc12 [Compound 51] | 0.364 µM

Row | Structure (SMILES) | EC50
56 | CC1CC(COc2nccc3cc(NC(=O)c4ncccc4O)ccc23)CCO1 (centres unmarked) [Compound 39] | 0.302 µM
57 | O=C(Nc1ccc2c(OC3CCSC3)nccc2c1)c1ccccn1 (centres unmarked) [Compound 54] | 0.915 µM
58 | O=C(Nc1ccc2c(OCC3CCCCO3)nccc2c1)c1ccccn1 (centres unmarked) [Compound 8] | 0.159 µM
59 | O=C(Nc1ccc2c(OCC3CCOCC3)nccc2c1)c1ccccn1 [Compound 1] | 0.056 µM
60 | Nc1cccnc1C(=O)Nc1ccc2c(OC3CCS(=O)(=O)C3)nccc2c1 (centres unmarked) [Compound 55] | 0.634 µM
61 | O=C(Nc1ccc2c(O[C@H]3CCOC3)nccc2c1)c1ncccc1O [Compound 11] | 0.883 µM
62 | COCCOc1nccc2cc(NC(=O)c3ccccn3)ccc12 [Compound 20] | 0.739 µM
63 | Nc1cccnc1C(=O)Nc1ccc2c(OCC3CCOC3)nccc2c1 (centres unmarked) [Compound 16] | 0.0714 µM
64 | CC1(C)CC(Oc2nccc3cc(NC(=O)c4ccccn4)ccc23)CCO1 (centres unmarked) [Compound 23] | 0.146 µM
65 | CC1(C)CC(Oc2nccc3cc(NC(=O)c4ncccc4N)ccc23)CCO1 (centres unmarked) [Compound 24] | 0.31 µM
66 | CC1COCC1COc1nccc2cc(NC(=O)c3ncccc3N)ccc12 (centres unmarked) [Compound 47] | 0.456 µM
67 | COCCOc1nccc2cc(NC(=O)c3ncccc3O)ccc12 [Compound 22] | 0.502 µM
68 | O=C(Nc1ccc2c(OCC3CCOC3)nccc2c1)c1ncccc1Cl (centres unmarked) [Compound 19] | 0.339 µM
69 | O=C(Nc1ccc2c(OCC3CCOC3)nccc2c1)c1ccsn1 (centres unmarked) [Compound 57] | 0.159 µM
70 | CC(C)(C)OCCOc1nccc2cc(NC(=O)c3ncccc3N)ccc12 [Compound 29] | 0.794 µM
71 | CC1(COc2nccc3cc(NC(=O)c4ccccn4)ccc23)CCOCC1 [Compound 31] | 0.246 µM
72 | COCCOc1nccc2cc(NC(=O)c3ncccc3N)ccc12 [Compound 21] | 0.227 µM
73 | O=C(Nc1ccc2c(OC3CCOCC3)nccc2c1)c1ncccc1O [Compound 14] | 0.331 µM
74 | CC(C)OCCOc1nccc2cc(NC(=O)c3ncccc3N)ccc12 [Compound 27] | 0.286 µM

Reference: US11319304B2, “Pyridine quinoline compounds as MGLUR4 allosteric potentiators, compositions, and methods of treating neurological dysfunction” (Vanderbilt University, priority 2017, dated 2022)
